Target: T1, CRAC channel (Homo sapiens, UniProt Q96D31)
T1 construct: endogenous in cells; host or cells: HEK293 (ECACC), untransfected
Test: HEK Calcium Influx Assay (FLIPR), inhibition of store-operated Ca2+ entry after thapsigargin store depletion
Format: cell-based
Conditions: 10 μM compound, HEK293 cells, read-out: % inhib. [@ 10 μM] FLIPR
Description: The effect of compounds of the invention on intracellular [Ca^2+] was tested in the HEK293 cell line (ECACC).
HEK293 cells were cultured in DMEM/F12/Glutamax (Gibco) containing 10% FCS (Gibco), and maintained at 37° C., 5% CO2. Cell were split twice a week [3*10^6 (Mon-Thu) and 1*10^6 (Thu-Mon) cells/50 ml medium in 1-175 ZK culture flasks, respectively]. Twenty four hours pre-experiment, cells were seeded on 96 well plates (Poly-D-Lysine 96 well Black/Clear Plate, BD Biocoat REF 356640) at a density of 40,000 cells/well in DMEM/F12 (Gibco) containing 10% FCS (Gibco), and maintained at 37° C., 5% CO2.
Prior to store-depletion, cell culture medium was removed and cells were loaded with the Calcium-sensitive fluorescent dye comprised within the Calcium-4-assay kit (Molecular Devices) in nominally Ca^2+-free HBS buffer (140 mM NaCl, 4 mM KCl, 0.2 mM MgCl2, 11 mM D-glucose, and 10 mM HEPES, pH 7.4) according to manufacturer's instruction for 60 min at 37° C., 5% CO2.
Passive depletion of intracellular Ca^2+-stores was then triggered by employing the SERCA inhibitor thapsigargin (2 μM final) for 10 min in the dark (RT). To prevent immediate Ca^2+-entry via the activated store-operated channels (SOCs), cells were maintained in Ca^2+-free HBS buffer comprising 100 μM EGTA during store-depletion.
Intracellular changes in [Ca^2+] were subsequently monitored with the FLIPR device (Molecular Devices). In brief, baseline imaging post-store depletion was allowed for 1 min before adjusting the extracellular buffer to 3 mM CaCl2. Increases in intracellular [Ca^2+] due to pre-activated SOC channels were monitored for 15 min until intracellular Ca^2+ levels had declined into a steady-state. Finally, compounds were administered, and Ca^2+ signals were recorded for additional 10 min.
Inhibition of endogenous SOC in HEK293 cells was quantified employing the average Ca^2+ signal measured from 9.5-10 min post-administration. Zero percent inhibition (MAX) was defined as the Ca^2+ signal recorded from wells to which DMSO-only had been added instead of compound. Hundred percent inhibition (MIN) was defined as the signal obtained from wells in which cells haven't been treated with TG prior to Ca^2+ addition and to which DMSO-only had been added instead of compound. For routine IC50 determinations of compounds, 8 concentrations of a serial dilution (1:3.16) were tested, starting off from 10 μM. Reliable IC50's could consequently be determined only, if they were at least sub 2.5-3 μM.

T1 sequence (Q96D31 whole entry): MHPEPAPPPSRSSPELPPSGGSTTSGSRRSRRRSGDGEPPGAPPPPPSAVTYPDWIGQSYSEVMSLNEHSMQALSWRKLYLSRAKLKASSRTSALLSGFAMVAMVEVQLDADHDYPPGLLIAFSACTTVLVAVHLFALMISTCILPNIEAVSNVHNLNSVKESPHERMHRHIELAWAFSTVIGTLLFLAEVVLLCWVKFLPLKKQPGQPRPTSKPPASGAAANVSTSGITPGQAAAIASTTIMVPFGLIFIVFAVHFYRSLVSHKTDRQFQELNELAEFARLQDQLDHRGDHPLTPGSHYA

Row | inhibition at 10 µM [%] | SMILES
1 | > 70 | Cc1cc(N2CCc3[nH]c(-c4c(F)cccc4Cl)cc3C2)n(C)n1 [Example 63, 2-(2-Chloro-6-fluoro-phenyl)-5-(2,5-dimethyl-2H-pyrazol-3-yl)-4,5,6,7-tetrahydro-1H-pyrrolo[3,2-c]pyridine]
2 | 50 to 70 | Cc1sc(-c2cccnc2)nc1N1CCc2[nH]c(-c3ccc(Cl)nc3)cc2C1=O [Example 43, 2-(6-Chloro-pyridin-3-yl)-5-(5-methyl-2-pyridin-3-yl-thiazol-4-yl)-1,5,6,7-tetrahydro-pyrrolo[3,2-c]pyridin-4-one]
3 | > 70 | Cc1sc(C2CC2)nc1N1CCc2[nH]c(-c3c(F)cccc3F)cc2C1 [Example 56, 2-Cyclopropyl-4-[2-(2,6-difluoro-phenyl)-4,5,6,7-tetrahydro-1H-pyrrolo[3,2-c]pyridin-5-yl]-5-methyl-thiazole]
4 | > 70 | Cc1sc(-c2cccnc2)nc1N1CCc2[nH]c(-c3c(F)cccc3F)c(CO)c2C1 [Example 85, [2-(2,6-Difluoro-phenyl)-5-(5-methyl-2-pyridin-3-yl-thiazol-4-yl)-4,5,6,7-tetrahydro-1H-pyrrolo[3,2-c]pyridin-3-yl]-methanol]
5 | 50 to 70 | Cc1sc(-c2ccccn2)nc1N1CCc2[nH]c(-c3c(F)cccc3F)cc2C1=O [Example 5, 2-(2,6-Difluoro-phenyl)-5-(5-methyl-2-pyridin-2-yl-thiazol-4-yl)-1,5,6,7-tetrahydro-pyrrolo[3,2-c]pyridin-4-one]
6 | > 70 | Cc1cc(N2CCc3[nH]c(-c4c(F)cccc4F)cc3C2)n(C)n1 [Example 58, 2-(2,6-Difluoro-phenyl)-5-(2,5-dimethyl-2H-pyrazol-3-yl)-4,5,6,7-tetrahydro-1H-pyrrolo[3,2-c]pyridine]
7 | 50 to 70 | Cc1ccc(C#N)cc1N1CCc2[nH]c(-c3c(F)cccc3F)cc2C1 [Example 29, 3-[2-(2,6-Difluoro-phenyl)-4,5,6,7-tetrahydro-1H-pyrrolo[3,2-c]pyridin-5-yl]-4-methyl-benzonitrile]
8 | > 70 | Cc1sc(-c2ncco2)nc1N1CCc2[nH]c(-c3c(F)cccc3Cl)cc2C1 [Example 62, 2-[4-[2-(2-Chloro-6-fluoro-phenyl)-4,5,6,7-tetrahydro-1H-pyrrolo[3,2-c]pyridin-5-yl]-5-methyl-thiazol-2-yl]-oxazole]
9 | > 70 | CCn1nc(N2CCc3[nH]c(-c4c(F)cccc4F)cc3C2)cc1C1(C(F)(F)F)CC1 [Example 125, 2-(2,6-Difluoro-phenyl)-5-[1-ethyl-5-[1-(trifluoromethyl)-cyclopropyl]-1H-pyrazol-3-yl]-4,5,6,7-tetrahydro-1H-pyrrolo[3,2-c]pyridine]
10 | > 70 | Cc1sc(-c2cccnc2)nc1N1CCc2[nH]c(-c3c(F)cccc3Cl)cc2C1 [Example 17, 4-[2-(2-Chloro-6-fluoro-phenyl)-4,5,6,7-tetrahydro-1H-pyrrolo[3,2-c]pyridin-5-yl]-5-methyl-2-pyridin-3-yl-thiazole]
11 | > 70 | CNC(=O)c1ccc(N2CCc3[nH]c(-c4c(F)cccc4F)cc3C2)c(C)c1 [Example 80, 4-[2-(2,6-Difluoro-phenyl)-4,5,6,7-tetrahydro-1H-pyrrolo[3,2-c]pyridin-5-yl]-N,3-dimethyl-benzamide]
12 | > 70 | COc1ncccc1-c1cc2c([nH]1)CCN(c1cnc(S(C)(=O)=O)cc1C)C2 [Example 98, 2-(2-Methoxy-pyridin-3-yl)-5-(4-methyl-6-methylsulfonyl-pyridin-3-yl)-4,5,6,7-tetrahydro-1H-pyrrolo[3,2-c]pyridine]
13 | > 70 | Cc1sc(-c2ncco2)nc1N1CCc2[nH]c(-c3c(F)cccc3F)cc2C1=O [Example 54, 2-(2,6-Difluoro-phenyl)-5-(5-methyl-2-oxazol-2-yl-thiazol-4-yl)-1,5,6,7-tetrahydro-pyrrolo[3,2-c]pyridin-4-one]
14 | 50 to 70 | Cc1cc(Cl)ncc1N1CCc2[nH]c(-c3ccc(F)cc3F)cc2C1=O [Example 44, 5-(6-Chloro-4-methyl-pyridin-3-yl)-2-(2,4-difluoro-phenyl)-1,5,6,7-tetrahydro-pyrrolo[3,2-c]pyridin-4-one]
15 | 50 to 70 | Cc1ccc(Cl)cc1N1CCc2[nH]c(-c3c(F)cccc3Cl)cc2C1=O [Example 50, 2-(2-Chloro-6-fluoro-phenyl)-5-(5-chloro-2-methyl-phenyl)-1,5,6,7-tetrahydro-pyrrolo[3,2-c]pyridin-4-one]
16 | 50 to 70 | COc1cc(C)c(N2CCc3[nH]c(-c4c(F)cccc4F)cc3C2=O)cn1 [Example 39, 2-(2,6-Difluoro-phenyl)-5-(6-methoxy-4-methyl-pyridin-3-yl)-1,5,6,7-tetrahydro-pyrrolo[3,2-c]pyridin-4-one]
17 | > 70 | Cc1sccc1N1CCc2[nH]c(-c3c(F)cccc3Cl)cc2C1=O [Example 51, 2-(2-Chloro-6-fluoro-phenyl)-5-(2-methyl-thiophen-3-yl)-1,5,6,7-tetrahydro-pyrrolo[3,2-c]pyridin-4-one]
18 | > 70 | Cc1sc(-c2cccnc2)nc1N1CCc2[nH]c(-c3c(F)cccc3Cl)cc2C1=O [Example 42, 2-(2-Chloro-6-fluoro-phenyl)-5-(5-methyl-2-pyridin-3-yl-thiazol-4-yl)-1,5,6,7-tetrahydro-pyrrolo[3,2-c]pyridin-4-one]
19 | > 70 | Cc1sccc1N1CCc2[nH]c(-c3c(F)cccc3F)cc2C1=O [Example 47, 2-(2,6-Difluoro-phenyl)-5-(2-methyl-thiophen-3-yl)-1,5,6,7-tetrahydro-pyrrolo[3,2-c]pyridin-4-one]
20 | > 70 | Cc1sccc1N1CCc2[nH]c(-c3c(F)cccc3Cl)cc2C1 [Example 60, 2-(2-Chloro-6-fluoro-phenyl)-5-(2-methyl-thiophen-3-yl)-4,5,6,7-tetrahydro-1H-pyrrolo[3,2-c]pyridine]
21 | > 70 | Cc1sc(C2CC2)nc1N1CCc2[nH]c(-c3c(F)cccc3F)cc2C1=O [Example 48, 5-(2-Cyclopropyl-5-methyl-thiazol-4-yl)-2-(2,6-difluoro-phenyl)-1,5,6,7-tetrahydro-pyrrolo[3,2-c]pyridin-4-one]
22 | 50 to 70 | Cc1cc(S(C)(=O)=O)ncc1N1CCc2[nH]c(-c3snnc3C)cc2C1 [Example 89, 4-Methyl-5-[5-(4-methyl-6-methylsulfonyl-pyridin-3-yl)-4,5,6,7-tetrahydro-1H-pyrrolo[3,2-c]pyridin-2-yl]-[1,2,3]thiadiazole]
23 | 50 to 70 | COc1cc(C#N)ccc1N1CCc2[nH]c(-c3c(F)cccc3Cl)cc2C1=O [Example 41, 4-[2-(2-Chloro-6-fluoro-phenyl)-4-oxo-1,5,6,7-tetrahydro-pyrrolo[3,2-c]pyridin-5-yl]-3-methoxy-benzonitrile]
24 | > 70 | Cc1cc(Cl)ncc1N1CCc2[nH]c(-c3c(F)cccc3F)cc2C1=O [Example 38, 5-(6-Chloro-4-methyl-pyridin-3-yl)-2-(2,6-difluoro-phenyl)-1,5,6,7-tetrahydro-pyrrolo[3,2-c]pyridin-4-one]
25 | > 70 | Cc1sc(C2CC2)nc1N1CCc2[nH]c(-c3c(F)cccc3Cl)cc2C1=O [Example 52, 2-(2-Chloro-6-fluoro-phenyl)-5-(2-cyclopropyl-5-methyl-thiazol-4-yl)-1,5,6,7-tetrahydro-pyrrolo[3,2-c]pyridin-4-one]
